Like-named read-outs stand apart in the source and are kept apart here.
What was measured:
S. pneumoniae = S. pneumoniae MMX 6837 (ATCC 49619); cited from earlier work
E. cloacae = assay: Broth microdilution MIC (Example 5); format: cell-based, Enterobacter cloacae; details: Enterobacter cloacae, ATCCBAA2468
Description: (§1) Test and Comparator Agents: The test agents were stored at room temperature until assayed. […] The stock solutions were allowed to stand for at least 1 hr prior to use to auto-sterilize.
(§2) TestMedia: Test media were prepared and stored in accordance with guidelines from CLSI (4, 6, 7).
Broth Microdilution MC Testing (Aerobic Bacteria and Yeast): The broth microdilution assay method employed for the susceptibility testing of aerobic bacteria (excluding N. gonorrhoeae which was evaluated by agar dilution) and yeast essentially followed the procedures described by CLSI (3, 4, 7, 8) and employed automated liquid handlers to conduct serial dilutions and liquid transfers. […] These would become the ‘mother plates’ from which ‘daughter’ or test plates would be prepared. The drugs (300 μL at 40× the desired top concentration in the test plates) were dispensed into the appropriate well in Column 1 of the mother plates. The Biomek 2000 was used to make serial two-fold dilutions through Column 11 in the “mother plate”. […]
(§3) Plates were stacked 4 high, covered with a lid on the top plate, placed into plastic bags, and incubated at 35° C. for approximately 24-48 hr for all yeast isolates and 16-24 hr for aerobic bacteria. […] MIC endpoints for the test agents and control compounds were read per CLSI criteria (3, 7).

K. pneumoniae = assay: Broth microdilution MIC (Example 5); format: cell-based, Klebsiella pneumoniae; details: Klebsiella pneumoniae
Description: as §1, §2
Broth Microdilution MC Testing (Aerobic Bacteria and Yeast): The broth microdilution assay method employed for the susceptibility testing of aerobic bacteria (excluding N. gonorrhoeae which was evaluated by agar dilution) and yeast essentially followed the procedures described by CLSI (3, 4, 7, 8) and employed automated liquid handlers to conduct serial dilutions and liquid transfers. […] These would become the ‘mother plates’ from which ‘daughter’ or test plates would be prepared. The drugs (300 μL at 40× the desired top concentration in the test plates) were dispensed into the appropriate well in Column 1 of the mother plates. The Biomek 2000 was used to make serial two-fold dilutions through Column 11 in the “mother plate”. The wells of Column 12 contained no drug and ultimately served as the organism growth control wells.
The daughter plates were prepared using the Biomek FX which transferred 5 μL of drug solution from each well of a mother plate to the corresponding well of the correct daughter plate in a single step.
A standardized inoculum of each organism was prepared per CLSI methods (3, 7). Isolated colonies of each test isolate were picked from the primary plate and a suspension was prepared to equal a 0.5 McFarland turbidity standard. Standardized suspensions were then diluted […] (1:100 for yeast, 1:20 for bacteria). After dilution, the inoculum suspensions were then transferred to compartments of sterile reservoirs divided by length (Beckman Coulter), and the Biomek 2000 was used to inoculate all plates. Daughter plates were placed on the Biomek 2000 in reverse orientation so that plates were inoculated from low to high drug concentration.
The Biomek 2000 delivered 10 μL of standardized inoculum into each well of the appropriate daughter plate for an additional 1:20 dilution.
as §3, with “bacteria. Plates were viewed from the bottom using a plate viewer.” for “bacteria.”

[1] = system: Pseudomonas aeruginosa biofilms (MR14, AG14); assay: Activity against biofilms (Example 7); format: cell-based; details: MR14, MDR CF-isolate of P. aeruginosa; at 25 ng/mL
[2] = system: MABSC / M. abscessus biofilms; assay: Activity against biofilms (Example 7); format: cell-based, Mycobacterium abscessus complex; details: AMT0130-8 MABSC CF-isolate
E. coli ATCC 25922 = details: per CLSI M100-S24 or provided by Microbion; cited from earlier work

Structure (SMILES): C[C@@H](O)[C@H]1C(=O)N2C(C(=O)O)=C(S[C@@H]3CN[C@H](C(=O)N(C)C)C3)[C@H](C)[C@H]12 [Meropenem]
- CLSI QC range of MIC (S. pneumoniae): (0.06-0.25) μg/mL

Structure (SMILES): OCC(S)CS.[Bi] (centres unmarked) [MB-2B, bismuth-2,3-dimercaptopropanol]
- MIC (E. cloacae): 32 µg/mL
- MIC (K. pneumoniae; K. pneumoniae MMX 4622, KPC-2): 16 µg/mL
- MIC (K. pneumoniae; K. pneumoniae MMX 4623, KPC-2): 32 µg/mL
- MIC (K. pneumoniae; K. pneumoniae MMX 4653, KPC-3): 16 µg/mL
- MIC (K. pneumoniae; K. pneumoniae MMX 4683, KPC-2): 8 µg/mL
- MIC (K. pneumoniae; K. pneumoniae MMX 4684, ESBL, read-out: MIC): 32 µg/mL
- MIC (K. pneumoniae; K. pneumoniae MMX 4685, ESBL, read-out: MIC): 8 µg/mL
- MIC (K. pneumoniae; K. pneumoniae MMX 4694, KPC-3): 8 µg/mL
- MIC (K. pneumoniae; K. pneumoniae MMX 5979, NDM-1): 16 µg/mL

Structure (SMILES): CC(S)C(C)S.[Bi] (centres unmarked) [MB-6, bismuth-2,3-butanedithiol]
- Reduction in biofilm cell viability [1]: 2 logs
- Reductions in biofilm cell viability [2]: only very modest reductions

Structure (SMILES): NCC[C@H](O)C(=O)N[C@@H]1C[C@H](N)[C@@H](O[C@H]2O[C@H](CN)[C@@H](O)[C@H](O)[C@H]2O)[C@H](O)[C@H]1O[C@H]1O[C@H](CO)[C@@H](O)[C@H](N)[C@H]1O [Amikacin]
- MIC, acceptable range (E. coli ATCC 25922): 0.5 to 4 µg/mL
- MIC, expected results (E. coli ATCC 25922): 1 to 2 µg/mL
